Where a SMILES comes first, the peptide text is derived from it. [ ]: non-standard residue; d: D form. Hyp = O=C(O)[C@@H]1C[C@@H](O)CN1
Assay: 8-day repeat-dose study, tolerability (blood chemistry, hematology, adverse events) in tumor-bearing dogs
Format: in vivo, dog
Details: for ALP / ALT / AST / Albumin / BUN / Bicarbonate / Bilirubin Conj. / Calcium / Chloride / Cholesterol / Creatine Kinase / GGT / Globulin / Glucose / HCT / HGB / MCH / MCV / Phosphorous / Platelets / Potassium / RBC / Sodium / Total Bilirubin / Total Protein / WBC: Post: 30 min after last injection on day 8, 10 mg s.c. once daily for 8 days
Excerpt: Previous studies utilizing repeat dosing in mice and rats established safe starting doses for studies using dogs. Female dogs with one or more spontaneously occurring mammary gland tumors greater than approximately 2 cm in maximum diameter, presenting to the Cancer Institute at the Schwarzman Animal Medical Center in New York City, were screened for inclusion in the study. […] All dogs underwent complete clinical staging, consisting of a complete blood count with cell differential, clinical chemistry, and urinalysis. Dogs were administered AFPep 10 mg s.c. once daily for 8 consecutive days. Tumors were biopsied prior to the administration of AFPep and were surgically removed on day 8 after the last injection of AFPep. Blood levels of AFPep were measured before and 30 minutes following its administration on the first day and eighth day of treatment with AFPep. Histopathology was obtained on all mammary gland tumors. Tolerability was assessed using the Veterinary Cooperative Oncology Group Common Terminology Criteria for Adverse Events. Blood chemistry and hematology analyses were performed at IDEXX Laboratories Inc. (Westbrook, ME, USA), using the Sysmex XT and Beckman AU 5800 systems. This study was approved by the Schwarzman Animal Medical Center IACUC and informed consent was obtained in writing from all owners.

Structure (SMILES): CC(C)[C@@H]1NC(=O)[C@@H]2C[C@@H](O)CN2C(=O)[C@H]([C@@H](C)O)NC(=O)[C@H](CCCCN)NC(=O)[C@H](CCC(=O)O)NC(=O)[C@H](CC(N)=O)NC(=O)CNC(=O)[C@@H]2C[C@@H](O)CN2C(=O)[C@H](CC(N)=O)NC1=O [AFPep] (cyclo(EKT[Hyp]VN[Hyp]GN))
- AFPep-related adverse events (VCOG-CTCAE) (10 mg s.c. once a day for 8 days, 6 dogs with mammary cancer): grade-1 injection site reactions in three out of six dogs
- complete blood counts with cell differential, clinical chemistry, and urinalysis (30 minutes before first exposure vs 30 minutes after the 8-day administration, 10 mg s.c. once daily, 6 dogs): unchanged
- ALP (Dog 1): 261 U/L
- ALT (Dog 1): 35 U/L
- AST (Dog 1): 14 U/L
- Albumin (Dog 1): 3 g/dL
- BUN (Dog 1): 27 mg/dL
- Bicarbonate (Dog 1): 21 mmol/L
- Bilirubin Conj. (Dog 1): 0.1 mg/dL
- Calcium (Dog 1): 10 mg/dL
- Chloride (Dog 1): 111 mmol/L
- Cholesterol (Dog 1): 277 mg/dL
- Creatine Kinase (Dog 1): 120 U/L
- GGT (Dog 1): 4 U/L
- Globulin (Dog 1): 3 g/dL
- Glucose (Dog 1): 107 mg/dL
- HCT (Dog 1): 39%
- HGB (Dog 1): 13 g/dL
- MCH (Dog 1): 24 pg
- MCV (Dog 1): 68 fL
- Phosphorous (Dog 1): 4 mg/dL
- Platelets (Dog 1): 438 10^3/µL
- Potassium (Dog 1): 4 mmol/L
- RBC (Dog 1): 6 10^6/µL
- Sodium (Dog 1): 145 mmol/L
- Total Bilirubin (Dog 1): 0.1 mg/dL
- Total Protein (Dog 1): 6 g/dL
- WBC (Dog 1): 18 10^3/µL
- ALP (Dog 2): 115 U/L
- ALT (Dog 2): 14 U/L
- AST (Dog 2): 20 U/L
- Albumin (Dog 2): 4 g/dL
- BUN (Dog 2): 14 mg/dL
- Bicarbonate (Dog 2): 23 mmol/L
- Bilirubin Conj. (Dog 2): 0.1 mg/dL
- Calcium (Dog 2): 11 mg/dL
- Chloride (Dog 2): 108 mmol/L
- Creatine Kinase (Dog 2): 225 U/L
- GGT (Dog 2): 6 U/L
- Globulin (Dog 2): 4 g/dL
- Glucose (Dog 2): 178 mg/dL
- HCT (Dog 2): 46%
- HGB (Dog 2): 17 g/dL
- MCH (Dog 2): 23 pg
- MCV (Dog 2): 65 fL
- Phosphorous (Dog 2): 3 mg/dL
- Platelets (Dog 2): 700 10^3/µL
- Potassium (Dog 2): 5 mmol/L
- RBC (Dog 2): 7 10^6/µL
- Sodium (Dog 2): 146 mmol/L
- Total Bilirubin (Dog 2): 0.1 mg/dL
- Total Protein (Dog 2): 8 g/dL
- WBC (Dog 2): 7 10^3/µL
- ALP (Dog 3): 178 U/L
- ALT (Dog 3): 39 U/L
- AST (Dog 3): 15 U/L
- Albumin (Dog 3): 4 g/dL
- BUN (Dog 3): 14 mg/dL
- Bicarbonate (Dog 3): 23 mmol/L
- Bilirubin Conj. (Dog 3): 0.1 mg/dL
- Calcium (Dog 3): 9 mg/dL
- Chloride (Dog 3): 108 mmol/L
- Cholesterol (Dog 3): 273 mg/dL
- Creatine Kinase (Dog 3): 115 U/L
- GGT (Dog 3): 4 U/L
- Globulin (Dog 3): 3 g/dL
- Glucose (Dog 3): 107 mg/dL
- HCT (Dog 3): 46%
- HGB (Dog 3): 17 g/dL
- MCH (Dog 3): 23 pg
- MCV (Dog 3): 64 fL
- Phosphorous (Dog 3): 4 mg/dL
- Platelets (Dog 3): 558 10^3/µL
- Potassium (Dog 3): 5 mmol/L
- RBC (Dog 3): 7 10^6/µL
- Sodium (Dog 3): 145 mmol/L
- Total Bilirubin (Dog 3): 0.1 mg/dL
- Total Protein (Dog 3): 7 g/dL
- WBC (Dog 3): 6 10^3/µL
- ALP (Dog 4): 148 U/L
- ALT (Dog 4): 60 U/L
- AST (Dog 4): 23 U/L
- Albumin (Dog 4): 3 g/dL
- BUN (Dog 4): 24 mg/dL
- Bicarbonate (Dog 4): 17 mmol/L
- Bilirubin Conj. (Dog 4): 0.1 mg/dL
- Calcium (Dog 4): 10 mg/dL
- Chloride (Dog 4): 114 mmol/L
- Cholesterol (Dog 4): 451 mg/dL
- Creatine Kinase (Dog 4): 169 U/L
- GGT (Dog 4): 6 U/L
- Globulin (Dog 4): 4 g/dL
- Glucose (Dog 4): 92 mg/dL
- HCT (Dog 4): 51%
- HGB (Dog 4): 18 g/dL
- MCH (Dog 4): 23 pg
- MCV (Dog 4): 62 fL
- Phosphorous (Dog 4): 3 mg/dL
- Platelets (Dog 4): 485 10^3/µL
- Potassium (Dog 4): 4.4 mmol/L
- RBC (Dog 4): 8 10^6/µL
- Sodium (Dog 4): 147 mmol/L
- Total Bilirubin (Dog 4): 0.1 mg/dL
- Total Protein (Dog 4): 6 g/dL
- WBC (Dog 4): 13 10^3/µL
- ALP (Dog 5): 15 U/L
- ALT (Dog 5): 29 U/L
- AST (Dog 5): 26 U/L
- Albumin (Dog 5): 4 g/dL
- BUN (Dog 5): 15 mg/dL
- Bicarbonate (Dog 5): 21 mmol/L
- Bilirubin Conj. (Dog 5): 0.1 mg/dL
- Calcium (Dog 5): 10 mg/dL
- Chloride (Dog 5): 110 mmol/L
- Cholesterol (Dog 5): 373 mg/dL
- Creatine Kinase (Dog 5): 138 U/L
- GGT (Dog 5): 18 U/L
- Globulin (Dog 5): 3 g/dL
- Glucose (Dog 5): 88 mg/dL
- HCT (Dog 5): 48%
- HGB (Dog 5): 18 g/dL
- MCH (Dog 5): 25 pg
- MCV (Dog 5): 67 fL
- Phosphorous (Dog 5): 3 mg/dL
- Platelets (Dog 5): 462 10^3/µL
- Potassium (Dog 5): 5 mmol/L
- RBC (Dog 5): 7 10^6/µL
- Sodium (Dog 5): 143 mmol/L
- Total Bilirubin (Dog 5): 0.1 mg/dL
- Total Protein (Dog 5): 7 g/dL
- WBC (Dog 5): 7 10^3/µL
- ALP (Dog 6): 19 U/L
- ALT (Dog 6): 41 U/L
- AST (Dog 6): 18 U/L
- Albumin (Dog 6): 3 g/dL
- BUN (Dog 6): 30 mg/dL
- Bicarbonate (Dog 6): 21 mmol/L
- Bilirubin Conj. (Dog 6): 0.1 mg/dL
- Calcium (Dog 6): 10 mg/dL
- Chloride (Dog 6): 114 mmol/L
- Cholesterol (Dog 6): 198 mg/dL
- Creatine Kinase (Dog 6): 80 U/L
- GGT (Dog 6): 5 U/L
- Globulin (Dog 6): 3 g/dL
- Glucose (Dog 6): 81 mg/dL
- HCT (Dog 6): 43%
- HGB (Dog 6): 15 g/dL
- MCH (Dog 6): 25 pg
- MCV (Dog 6): 74 fL
- Phosphorous (Dog 6): 6 mg/dL
- Platelets (Dog 6): 519 10^3/µL
- Potassium (Dog 6): 4 mmol/L
- RBC (Dog 6): 6 10^6/µL
- Sodium (Dog 6): 143 mmol/L
- Total Bilirubin (Dog 6): 0.1 mg/dL
- Total Protein (Dog 6): 6 g/dL
- WBC (Dog 6): 13 10^3/µL

— article PMC9913752, “Proof-of-Concept Study of an Alpha-Fetoprotein-Derived Peptide for the Management of Canine Mammary Cancer” (Animals : an Open Access Journal from MDPI, 2023)
